According to patent US20240172748A1, “A SYNERGISTIC PLANT GROWTH STIMULANT COMPOSITION COMPRISING MELATONIN AND NITROGENOUS COMPOUNDS FOR IMPROVING PLANT GROWTH AND DECREASING BIOTIC-ABIOTIC STRESSES ON PLANTS” (FERTIS INDIA PVT. LTD., priority 2021, published 2024):

Legend:
Format in all cases: in vivo
Paddy [1] = assay: Percentage of protein in grain, field trial on Paddy; conditions: area 10-meter square, 1 gm/liter foliar application
From the text: Example 11: Percentage of Protein in Grain
(§1) Field trail results on Paddy—Area 10-meter square 1 gm/liter Foliar Application

Paddy [2] = assay: Total protein content in percentage in grain, field trial on Paddy; conditions: area 10-meter square, lgm/liter foliar application
From the text: Example 12: Methionin with Plant Growth Hormone—Total Protein Content in Percentage in Grain
Field trail results on Paddy—Area 10-meter square lgm/liter Foliar Application

Paddy [3] = assay: Micronutrient analysis in grain, field trial on Paddy; conditions: area 10-meter square, 1 gm/liter foliar application
From the text: Example 9: Micronutrient Analysis in Grain
as §1

SMILES | % of Protein (Paddy [1]) | Total Protein content in % (Paddy [2]) | other results
NC(N)=O [Urea] | 0.0063% |  | 
C=C1C[C@]23C[C@@]1(O)CC[C@H]2[C@@]12C=C[C@H](O)[C@@](C)(C(=O)O1)[C@H]2[C@@H]3C(=O)O [Gibberellic acid] |  | 0.084% | 
CNC(=O)NC [Dimethyl urea] | 0.0081% |  | 
O=C(Nc1ccccc1)Nc1ccccc1 [Diphenyl urea] | 0.0089% |  | 
COc1ccc2[nH]cc(CCNC(C)=O)c2c1 [Melatonin] |  | 0.076% | B (Boron) (Paddy [3]): 40.30 ppm; Ca (Calcium) (Paddy [3]): 375.00 ppm; Fe (Iron) (Paddy [3]): 300.00 ppm; Mg (Magnesium) (Paddy [3]): 609.00 ppm; Mn (Manganese) (Paddy [3]): 45.00 ppm; Zn (Zinc) (Paddy [3]): 36.50 ppm
O=CNC(=O)NC=O [NN DFU, N,N′-Diformyl Urea] | 0.0117% |  | 
